From the SangsterLogP compilation

Test: method code SF-AS, from DOI: 10.1016/0223-5234(92)90084-e
Settings: not given

First: CCCCc1csc(-c2ccc(C(C)C(=O)O)cc2)n1 (centres undefined)
Second: CCc1csc(-c2ccc(C(C)C(=O)O)cc2)n1 (centres undefined)
The logP of the first is higher: 4.04 for the first, 3.75 for the second.

First: Cc1csc(-c2ccc(C(C)C(=O)O)cc2)n1 (centres undefined)
Second: CC(C(=O)O)c1ccc(-c2nc(CO)cs2)cc1 (centres undefined)
The logP of the first is higher: 3.03 for the first, 2.25 for the second.

`Cc1csc(-c2ccc(C(C)C(=O)O)cc2F)n1` (centres undefined) and `Cc1csc(-c2ccc(C(C)C(=O)O)cc2Cl)n1` (centres undefined) are within 0.2 log units of each other in logP: 3.52 for the first, 3.65 for the second.

Going from `CCc1nc(-c2ccc(C(C)C(=O)O)cc2)sc1C` (centres undefined) to `Cc1nc(-c2ccc(C(C)C(=O)O)cc2)sc1C` (centres undefined), the logP falls from 3.99 to 3.36.

`Cc1cnc(-c2ccc(C(C)C(=O)O)cc2F)s1` (centres undefined) and `Cc1cnc(-c2ccc(C(C)C(=O)O)cc2Cl)s1` (centres undefined) are within 0.2 log units of each other in logP: 3.55 for the first, 3.66 for the second.

Compared with `CCc1cnc(-c2ccc(C(C)C(=O)O)cc2Cl)s1` (centres undefined), `CCc1cnc(-c2ccc(C(C)C(=O)O)cc2F)s1` (centres undefined) is lower in logP: 4.39 for the first, 4.1 for the second.

Compared with `CC(C(=O)O)c1ccc(-c2nccs2)c(F)c1` (centres undefined), `CC(C(=O)O)c1ccc(-c2nccs2)c(Cl)c1` (centres undefined) is higher in logP: 3.14 for the first, 3.39 for the second.

First: COCc1csc(-c2ccc(C(C)C(=O)O)cc2)n1 (centres undefined)
Second: CC(C(=O)O)c1ccc(-c2nc3c(s2)CCCC3)cc1 (centres undefined)
The logP of the first is lower: 2.78 for the first, 4.41 for the second.

`CCCCc1csc(-c2ccc(C(C)C(=O)O)cc2Cl)n1` (centres undefined) and `CCCCc1csc(-c2ccc(C(C)C(=O)O)cc2F)n1` (centres undefined) are within 0.2 log units of each other in logP: 4.84 for the first, 4.66 for the second.

First: COc1cc(C(C)C(=O)O)ccc1-c1nccs1 (centres undefined)
Second: CC(C(=O)O)c1ccc(-c2nccs2)c([N+](=O)[O-])c1 (centres undefined)
The logP of the first is higher: 2.47 for the first, 2.06 for the second.

Going from `Cc1nc(-c2ccc(C(C)C(=O)O)cc2F)sc1C` (centres undefined) to `Cc1nc(-c2ccc(C(C)C(=O)O)cc2Cl)sc1C` (centres undefined), the logP rises from 3.74 to 3.94.

Same assay, conditions: pH 2.0

First: CC(C(=O)O)c1ccc(-c2nc(-c3ccccc3)cs2)cc1 (centres undefined)
Second: C=Cc1csc(-c2ccc(C(C)C(=O)O)cc2)n1 (centres undefined)
The logD of the first is higher: 4.81 for the first, 3.54 for the second.

First: CC(C(=O)O)c1ccc(-c2nc(C(=O)N(C)C)cs2)cc1 (centres undefined)
Second: CC(=O)c1csc(-c2ccc(C(C)C(=O)O)cc2)n1 (centres undefined)
The logD of the first is lower: 2.15 for the first, 2.65 for the second.

Going from `CC(C)c1csc(-c2ccc(C(C)C(=O)O)cc2Cl)n1` (centres undefined) to `CC(C)c1csc(-c2ccc(C(C)C(=O)O)cc2F)n1` (centres undefined), the logD falls from 4.26 to 4.04.

Going from `C=CCc1csc(-c2ccc(C(C)C(=O)O)cc2)n1` (centres undefined) to `CC(C(=O)O)c1ccc(-c2nc(C(N)=O)cs2)cc1` (centres undefined), the logD falls from 3.4 to 2.17.

Compared with `CCc1csc(-c2ccc(C(C)C(=O)O)cc2F)n1` (centres undefined), `CNC(=O)c1csc(-c2ccc(C(C)C(=O)O)cc2)n1` (centres undefined) is lower in logD: 3.58 for the first, 2.45 for the second.

`CC(C(=O)O)c1ccc(-c2nc(C(F)(F)F)cs2)cc1` (centres undefined) showed a logD of 3.78.

Same assay, conditions: pH 3.4

With `CC(C(=O)O)c1ccc(-c2nccs2)c(N)c1` (centres undefined) the logD was 2.45.
